Organism: Rattus norvegicus
Test: Open TG-GATES - Regimen: Single
Format: toxicity, organism-based, Sprague-Dawley
Set-up: regimen Single, gender Male, age 6 weeks
Conditions: in vivo, sc, 0.2 mg/kg, route subcutaneous injection, dose 200 ug/Kg, dose level Middle; for APTT / Bas / Eos / Fbg / Hb / Ht / Lym / MCH / MCHC / MCV / Mono / Neu / PT / Plat / RBC / Ret / WBC: tissue Blood; for KIDNEY_L / KIDNEY_R / KIDNEY_TOTAL: tissue Kidney; for LIVER: tissue Liver; for A/G / ALP / ALT / AST / BUN / CRE / Ca / Cl / DBIL / GLC / IP / K / LDH / Na / PL / RALB / TBIL / TC / TG / TP / gamma-GTP: tissue Plasma

CC(=O)O.N=C(N)NCCC[C@@H](NC(=O)[C@@H]1CCCN1C(=O)[C@@H]1CSSCCC(=O)N[C@@H](Cc2ccc(O)cc2)C(=O)N[C@@H](Cc2ccccc2)C(=O)N[C@@H](CCC(N)=O)C(=O)N[C@@H](CC(N)=O)C(=O)N1)C(=O)NCC(N)=O [DESMOPRESSIN ACETATE] gave a TERMINAL_BW (3 h) of 206.2 g, an APTT (3 h) of 17.6 s and a Bas (3 h) of 0%. For the same molecule, the Eos (3 h) was 1%, the Fbg (3 h) was 256.3 mg/dL and the Hb (3 h) was 12.8 g/dL. For the same molecule, the Ht (3 h) was 39.6%, the Lym (3 h) was 71.8% and the MCH (3 h) was 21.1 pg. It also gave an MCHC (3 h) of 32.3%, an MCV (3 h) of 65.1 fL and a Mono (3 h) of 7.6%. The Neu (3 h) was 19.6%, the PT (3 h) was 12.2 s and the Plat (3 h) was 112.4 x10_4/uL. For the same molecule, the RBC (3 h) was 609.4 x10_4/ul, the Ret (3 h) was 8.8% and the WBC (3 h) was 77 x10_2/uL. It also gave a KIDNEY_L (3 h) of 0.9 g, a KIDNEY_R (3 h) of 1 g and a KIDNEY_TOTAL (3 h) of 1.9 g. It also gave an LIVER (3 h) of 9.9 g, an A/G (3 h) of 2 and an ALP (3 h) of 1405.8 IU/L. For the same molecule, the ALT (3 h) was 44.4 IU/L, the AST (3 h) was 81.2 IU/L and the BUN (3 h) was 23.8 mg/dL. It also gave a CRE (3 h) of 0.4 mg/dL, a Ca (3 h) of 11.8 mg/dL and a Cl (3 h) of 101 meq/L. It also gave a DBIL (3 h) of 0.012 mg/dL, a GLC (3 h) of 205.6 mg/dL and an IP (3 h) of 10.8 mg/dL. It also gave a K (3 h) of 4.6 meq/L, an LDH (3 h) of 272.6 IU/L and a Na (3 h) of 134.6 meq/L. For the same molecule, the PL (3 h) was 145.8 mg/dL, the RALB (3 h) was 3.8 g/dL and the TBIL (3 h) was 0.05 mg/dL. For the same molecule, the TC (3 h) was 77 mg/dL, the TG (3 h) was 99.8 mg/dL and the TP (3 h) was 5.7 g/dL. It also gave a gamma-GTP (3 h) of 0.8 IU/L, a TERMINAL_BW (6 h) of 205.6 g and an APTT (6 h) of 18.4 s. It also gave a Bas (6 h) of 0%, an Eos (6 h) of 1.6% and a Fbg (6 h) of 244.6 mg/dL. The Hb (6 h) was 13 g/dL, the Ht (6 h) was 39.7% and the Lym (6 h) was 71.8%. It also gave an MCH (6 h) of 21.4 pg, an MCHC (6 h) of 32.8% and an MCV (6 h) of 65.3 fL. The Mono (6 h) was 8.8%, the Neu (6 h) was 18% and the PT (6 h) was 12.5 s. It also gave a Plat (6 h) of 124.8 x10_4/uL, an RBC (6 h) of 609.4 x10_4/ul and a Ret (6 h) of 8.7%. It also gave a WBC (6 h) of 102.8 x10_2/uL, a KIDNEY_L (6 h) of 1 g and a KIDNEY_R (6 h) of 1 g. The KIDNEY_TOTAL (6 h) was 2 g, the LIVER (6 h) was 9.6 g and the A/G (6 h) was 2.1. For the same molecule, the ALP (6 h) was 1316 IU/L, the ALT (6 h) was 34.8 IU/L and the AST (6 h) was 63.2 IU/L. It also gave a BUN (6 h) of 27.4 mg/dL, a CRE (6 h) of 0.3 mg/dL and a Ca (6 h) of 10.9 mg/dL. For the same molecule, the Cl (6 h) was 101 meq/L, the DBIL (6 h) was 0.016 mg/dL and the GLC (6 h) was 200.6 mg/dL. The IP (6 h) was 10.3 mg/dL, the K (6 h) was 4.6 meq/L and the LDH (6 h) was 127.6 IU/L. It also gave a Na (6 h) of 135.4 meq/L, a PL (6 h) of 155.6 mg/dL and an RALB (6 h) of 3.7 g/dL. The TBIL (6 h) was 0.064 mg/dL, the TC (6 h) was 84.2 mg/dL and the TG (6 h) was 76.2 mg/dL. For the same molecule, the TP (6 h) was 5.5 g/dL, the gamma-GTP (6 h) was 1 IU/L and the TERMINAL_BW (9 h) was 199.6 g. For the same molecule, the APTT (9 h) was 17.9 s, the Bas (9 h) was 0% and the Eos (9 h) was 1.2%. The Fbg (9 h) was 239.4 mg/dL, the Hb (9 h) was 13.3 g/dL and the Ht (9 h) was 41%. For the same molecule, the Lym (9 h) was 74.4%, the MCH (9 h) was 21.4 pg and the MCHC (9 h) was 32.4%. The MCV (9 h) was 66.2 fL, the Mono (9 h) was 7.4% and the Neu (9 h) was 17%. For the same molecule, the PT (9 h) was 12.5 s, the Plat (9 h) was 112.4 x10_4/uL and the RBC (9 h) was 620 x10_4/ul. It also gave a Ret (9 h) of 9.2%, a WBC (9 h) of 93.8 x10_2/uL and a KIDNEY_L (9 h) of 1 g. It also gave a KIDNEY_R (9 h) of 1 g, a KIDNEY_TOTAL (9 h) of 2.1 g and an LIVER (9 h) of 8.4 g. For the same molecule, the A/G (9 h) was 2, the ALP (9 h) was 1325.8 IU/L and the ALT (9 h) was 31 IU/L. The AST (9 h) was 60.4 IU/L, the BUN (9 h) was 28.4 mg/dL and the CRE (9 h) was 0.3 mg/dL. It also gave a Ca (9 h) of 11.2 mg/dL, a Cl (9 h) of 102.6 meq/L and a DBIL (9 h) of 0.016 mg/dL. It also gave a GLC (9 h) of 195.6 mg/dL, an IP (9 h) of 10.6 mg/dL and a K (9 h) of 5.4 meq/L. For the same molecule, the LDH (9 h) was 104.4 IU/L, the Na (9 h) was 135.4 meq/L and the PL (9 h) was 144 mg/dL. It also gave an RALB (9 h) of 3.7 g/dL, a TBIL (9 h) of 0.068 mg/dL and a TC (9 h) of 84 mg/dL. For the same molecule, the TG (9 h) was 50.2 mg/dL, the TP (9 h) was 5.5 g/dL and the gamma-GTP (9 h) was 0.8 IU/L. The TERMINAL_BW (24 h) was 218.4 g, the APTT (24 h) was 16.7 s and the Bas (24 h) was 0%. It also gave an Eos (24 h) of 1%, a Fbg (24 h) of 245.4 mg/dL and a Hb (24 h) of 12.6 g/dL. It also gave a Ht (24 h) of 38.9%, a Lym (24 h) of 77.4% and an MCH (24 h) of 21.1 pg. For the same molecule, the MCHC (24 h) was 32.4%, the MCV (24 h) was 65.3 fL and the Mono (24 h) was 6.4%. It also gave a Neu (24 h) of 15%, a PT (24 h) of 12.3 s and a Plat (24 h) of 123 x10_4/uL. It also gave an RBC (24 h) of 596.6 x10_4/ul, a Ret (24 h) of 10.6% and a WBC (24 h) of 103.4 x10_2/uL. For the same molecule, the KIDNEY_L (24 h) was 1 g, the KIDNEY_R (24 h) was 1 g and the KIDNEY_TOTAL (24 h) was 2 g. The LIVER (24 h) was 10.2 g, the A/G (24 h) was 2 and the ALP (24 h) was 1597.6 IU/L. The ALT (24 h) was 40.2 IU/L, the AST (24 h) was 69.8 IU/L and the BUN (24 h) was 19.8 mg/dL. The CRE (24 h) was 0.4 mg/dL, the Ca (24 h) was 11.1 mg/dL and the Cl (24 h) was 103.6 meq/L. It also gave a DBIL (24 h) of 0 mg/dL, a GLC (24 h) of 197.4 mg/dL and an IP (24 h) of 8.5 mg/dL. For the same molecule, the K (24 h) was 5.3 meq/L, the LDH (24 h) was 156.4 IU/L and the Na (24 h) was 137.2 meq/L. The PL (24 h) was 157 mg/dL, the RALB (24 h) was 3.6 g/dL and the TBIL (24 h) was 0.022 mg/dL. The TC (24 h) was 90.6 mg/dL, the TG (24 h) was 93 mg/dL and the TP (24 h) was 5.5 g/dL. It also gave a gamma-GTP (24 h) of 1.8 IU/L.

— ChEMBL document CHEMBL3885861, “Open TG-GATES”
